Measurements published in patent US20070270399A1, “New compounds 302” (priority 2006, published 2007).

Columns and labels:
human NK2 receptor = target: T1, human NK2 receptor (Homo sapiens, UniProt P21452); assay: FLIPR assay, inhibition of human NK2 receptor activation (intracellular Ca2+); type: cell-based; conditions: CHO cells with human NK2 receptor, NKA agonist at approx. EC60; pKB converted from IC50
T1 construct: expressed in transfected cells; host or cells: CHO K1 cells (ATCC), pRc/CMV vector
T1 sequence (P21452 1-398): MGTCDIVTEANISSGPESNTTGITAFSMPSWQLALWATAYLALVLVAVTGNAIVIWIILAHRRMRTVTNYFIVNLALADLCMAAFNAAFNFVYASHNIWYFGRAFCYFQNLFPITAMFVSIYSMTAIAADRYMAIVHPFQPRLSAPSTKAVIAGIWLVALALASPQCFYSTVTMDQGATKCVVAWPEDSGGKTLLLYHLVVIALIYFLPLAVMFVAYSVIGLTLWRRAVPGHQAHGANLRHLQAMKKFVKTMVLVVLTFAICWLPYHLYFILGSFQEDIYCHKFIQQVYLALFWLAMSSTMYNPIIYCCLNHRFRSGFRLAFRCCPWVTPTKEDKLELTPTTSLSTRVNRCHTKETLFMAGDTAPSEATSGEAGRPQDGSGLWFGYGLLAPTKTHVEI
Procedure: (§1) Chinese Hamster Ovary (CHO) K1 cells (obtained from ATCC) were stably transfected with the human NK2 receptor (hNK2R cDNA in pRc/CMV, Invitrogen) or the human NK3 receptor (hNK3R in pcDNA 3.1/Hygro (+)/IRES/CD8, Invitrogen vector modified at AstraZeneca EST-Bio UK, Alderley Park). The cells were transfected with the cationic lipid reagent LIPOFECTAMINE™ (Invitrogen) and selection was performed with Geneticin (G418, Invitrogen) at 1 mg/ml for the hNK2R transfected cells and with Hygromycin (Invitrogen) at 500 μg/ml for the hNK3R transfected cells. Single cell clones were collected by aid of Fluorescence Activated Cell Sorter (FACS), tested for functionality in a FLIPR assay (see below), expanded in culture and cryopreserved for future use. CHO cells stably transfected with human NK1 receptors originates from AstraZeneca R&D, Wilmington USA. Human NK1 receptor cDNA (obtained from RNA-PCR from lung tissue) was subcloned into pRcCMV (Invitrogen). Transfection was performed by Calcium Phosphate and selection with 1 mg/ml G418. […]
(§2) The activity of a compound of the invention to inhibit NK1/NK2/NK3 receptor activation measured as NK1/NK2/NK3 receptor mediated increase in intracellular Ca^2+ was assessed by the following procedure: […]

[1] = Metabolic stability in liver microsomes (intrinsic clearance); type: in vitro ADME; conditions: human, pH 7.4, 37° C., read-out: CLint (HLM)
Procedure: The metabolic stability of compounds according to formula I can be determined as described below: […]
The rate of biotransformation can be measured as either metabolite(s) formation or the rate of disappearance of the parent compound. The experimental design involves incubation of low concentrations of substrate (usually 1.0 μM) with liver microsomes (usually 0.5 mg/ml) and taking out aliquotes at varying time points (usually 0, 5, 10, 15, 20, 30, 40 min.). The test compound is usually dissolved in DMSO. The DMSO concentration in the incubation mixture is usually 0.1% or less since more solvent can drastically reduce the activities of some CYP450s. Incubations are done in 100 mM potassium phosphate buffer, pH 7.4 and at 37° C. Acetonitrile or methanol is used to stop the reaction. The parent compound is analysed by HPLC-MS. From the calculated half-life, t1/2, the intrinsic clearance, Clint, is estimated by taking microsomal protein concentration and liver weight into account.

human NK3 receptor = target: T2, human NK3 receptor (Homo sapiens, UniProt P29371); assay: FLIPR assay, inhibition of human NK3 receptor activation (intracellular Ca2+); type: cell-based; conditions: CHO cells with human NK3 receptor, Pro-7-NKB agonist at approx. EC60; pKB converted from IC50
T2 construct: expressed in transfected cells; host or cells: CHO K1 cells (ATCC), pcDNA 3.1/Hygro (+)/IRES/CD8 vector
T2 sequence (P29371 1-465): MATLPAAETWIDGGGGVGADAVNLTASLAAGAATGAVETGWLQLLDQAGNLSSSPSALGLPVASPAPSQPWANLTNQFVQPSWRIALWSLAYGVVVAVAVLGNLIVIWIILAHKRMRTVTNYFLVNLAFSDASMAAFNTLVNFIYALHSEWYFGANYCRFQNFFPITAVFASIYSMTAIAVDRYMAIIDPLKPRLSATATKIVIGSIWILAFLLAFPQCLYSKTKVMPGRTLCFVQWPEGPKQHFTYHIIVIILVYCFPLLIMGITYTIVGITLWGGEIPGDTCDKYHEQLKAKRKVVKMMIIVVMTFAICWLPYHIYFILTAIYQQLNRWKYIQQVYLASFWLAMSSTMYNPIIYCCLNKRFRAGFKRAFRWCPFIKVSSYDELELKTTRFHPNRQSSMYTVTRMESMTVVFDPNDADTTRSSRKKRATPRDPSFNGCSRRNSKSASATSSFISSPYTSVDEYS
Procedure: as §1, §2

[2] = target: hERG-encoded potassium channel (Homo sapiens, UniProt Q12809); assay: Activity against hERG (planar-array-based voltage clamp); type: cell-based
Procedure: The activity of compounds according to formula I against the hERG-encoded potassium channel can be determined according to Kiss L, et al. Assay Drug Dev Technol. 1 (2003), 127-35: “High throughput ion-channel pharmacology: planar-array-based voltage clamp”.
The IC50 values tested as described above were generally greater than 8 μM.

CYP3A4 = CYP3A4 (Homo sapiens, UniProt P08684); assay: CYP3A4 inhibition according to Bapiro et al; type: in vitro ADME
Procedure: The IC50 values tested according to Bapiro et al; Drug Metab. Dispos. 29, 30-35 (2001) were generally greater than 50 μM.

human NK1 receptor = target: T3, human NK1 receptor (Homo sapiens, UniProt P25103); assay: FLIPR assay, inhibition of human NK1 receptor activation (intracellular Ca2+); type: cell-based; conditions: CHO cells with human NK1 receptor, Substance P agonist at approx. EC60; pKB converted from IC50
T3 construct: expressed in transfected cells; host or cells: CHO cells (AstraZeneca R&D, Wilmington USA), pRcCMV vector
Procedure: as §1, §2

T3 sequence (P25103 whole entry): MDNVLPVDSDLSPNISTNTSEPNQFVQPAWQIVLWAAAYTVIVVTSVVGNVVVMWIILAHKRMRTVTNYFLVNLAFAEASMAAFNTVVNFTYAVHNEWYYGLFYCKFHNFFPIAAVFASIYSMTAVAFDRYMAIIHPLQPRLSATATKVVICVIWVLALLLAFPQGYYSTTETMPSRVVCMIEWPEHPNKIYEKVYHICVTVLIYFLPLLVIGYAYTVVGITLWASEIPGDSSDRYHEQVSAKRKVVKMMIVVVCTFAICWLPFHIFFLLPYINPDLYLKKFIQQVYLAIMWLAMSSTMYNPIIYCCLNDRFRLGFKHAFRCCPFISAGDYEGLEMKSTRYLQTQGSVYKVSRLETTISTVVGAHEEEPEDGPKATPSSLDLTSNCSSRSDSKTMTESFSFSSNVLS
Chain of hERG-encoded potassium channel (Q12809 whole entry): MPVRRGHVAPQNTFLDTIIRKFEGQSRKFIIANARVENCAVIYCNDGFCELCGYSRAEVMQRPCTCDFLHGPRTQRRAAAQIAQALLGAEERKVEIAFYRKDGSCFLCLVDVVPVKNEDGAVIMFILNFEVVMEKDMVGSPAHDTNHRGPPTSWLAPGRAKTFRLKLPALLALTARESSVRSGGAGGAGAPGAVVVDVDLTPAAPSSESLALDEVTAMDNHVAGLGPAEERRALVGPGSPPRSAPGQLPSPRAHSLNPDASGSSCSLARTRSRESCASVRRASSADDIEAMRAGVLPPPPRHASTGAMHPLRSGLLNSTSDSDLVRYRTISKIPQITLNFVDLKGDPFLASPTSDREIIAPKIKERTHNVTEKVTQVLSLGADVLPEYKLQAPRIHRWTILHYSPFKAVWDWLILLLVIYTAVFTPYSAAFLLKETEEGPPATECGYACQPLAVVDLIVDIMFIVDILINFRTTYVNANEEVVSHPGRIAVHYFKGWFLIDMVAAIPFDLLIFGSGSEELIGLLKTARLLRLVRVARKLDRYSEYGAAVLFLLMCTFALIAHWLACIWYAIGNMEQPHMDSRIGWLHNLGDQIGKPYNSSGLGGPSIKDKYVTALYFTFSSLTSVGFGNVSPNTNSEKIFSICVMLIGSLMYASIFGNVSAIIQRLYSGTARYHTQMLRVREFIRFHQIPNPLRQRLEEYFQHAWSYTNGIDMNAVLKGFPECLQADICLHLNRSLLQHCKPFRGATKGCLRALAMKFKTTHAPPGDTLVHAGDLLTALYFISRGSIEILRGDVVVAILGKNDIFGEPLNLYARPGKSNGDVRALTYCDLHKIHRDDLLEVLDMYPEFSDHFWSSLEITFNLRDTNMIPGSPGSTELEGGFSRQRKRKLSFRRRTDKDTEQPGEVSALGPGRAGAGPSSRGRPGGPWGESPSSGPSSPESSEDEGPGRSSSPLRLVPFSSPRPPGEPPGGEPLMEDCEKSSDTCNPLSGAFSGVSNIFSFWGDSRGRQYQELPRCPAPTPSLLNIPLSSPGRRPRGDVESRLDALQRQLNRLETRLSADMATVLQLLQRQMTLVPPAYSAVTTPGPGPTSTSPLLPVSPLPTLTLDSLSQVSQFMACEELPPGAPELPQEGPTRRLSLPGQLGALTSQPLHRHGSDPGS
Chain of CYP3A4 (P08684 whole entry): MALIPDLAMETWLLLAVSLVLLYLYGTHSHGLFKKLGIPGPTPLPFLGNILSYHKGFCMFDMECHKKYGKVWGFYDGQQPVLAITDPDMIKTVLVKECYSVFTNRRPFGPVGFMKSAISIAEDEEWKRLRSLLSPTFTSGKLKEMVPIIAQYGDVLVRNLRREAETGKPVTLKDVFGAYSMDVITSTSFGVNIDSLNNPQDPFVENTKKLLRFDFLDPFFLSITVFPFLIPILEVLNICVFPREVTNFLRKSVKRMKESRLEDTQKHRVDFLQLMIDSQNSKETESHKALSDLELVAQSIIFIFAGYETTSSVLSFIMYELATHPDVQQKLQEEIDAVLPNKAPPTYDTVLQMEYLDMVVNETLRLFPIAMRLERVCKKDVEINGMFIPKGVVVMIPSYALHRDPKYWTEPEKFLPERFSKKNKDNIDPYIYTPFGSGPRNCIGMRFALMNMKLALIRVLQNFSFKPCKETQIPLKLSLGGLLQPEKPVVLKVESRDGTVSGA

Kb (human NK2 receptor): 0.0501 µM
microsomal CLint at 1 μM [1]: 39 µL/min/mg
Kb (human NK3 receptor): 0.126 µM
IC50 (CYP3A4): > 50 µM
Kb (human NK1 receptor): 0.0251 µM
Structure (SMILES): CN(C[C@@H](CCN1CC(N2CCOCC2)C1)c1ccc(F)cc1)C(=O)c1cc(Cl)cc(C(F)(F)F)c1 [Ex1, 3-Chloro-N-[(2S)-2-(4-fluorophenyl)-4-(3-morpholin-4-ylazetidin-1-yl)butyl]-N-methyl-5-(trifluoromethyl)benzamide]
IC50 [2]: 8.5 µM
